In patent US8466311B2, “Neuroprotective compositions and methods” (Sanford-Burnham Medical Research Institute, priority 2006, dated 2013):

Assays:
Nrf2 = assay: Intracellular distribution of Nrf2 protein in COS7 cells (immunofluorescence); assay type: cell-based; details: 10 μM CA
Description: Immunocytochemistry. Cultures were fixed with 3% paraformaldehyde at room temperature for 20 min. After three washes in PBS, the cells were permeabilized with 0.3% Triton X-100 for 5 min. After three additional washes in PBS, the cells were incubated at 4° C. overnight with primary antibodies. They were then washed three times in PBS containing 0.2% Tween 20 (PBS-T), and next incubated with secondary antibodies for 1 h at room temperature. Thereafter, the cells were again washed, and their nuclei stained with Hoechst 33,258 (5 μg/ml) or with DAPI (1 μg/ml) for 5 min. Stained preparations were mounted and examined by epifluorescence microscopy. The following primary antibodies were used: anti-Nrf2 antibody, anti-MAP2 and anti-NeuN antibodies to identify neurons (dendrites and nuclei, respectively), and anti-S100β antibody to identify astrocytes. As secondary antibodies, we used FITC-conjugated anti-mouse IgG, rhodamine-conjugated anti-mouse IgG, or rhodamine-conjugated streptavidin.
After binding of the electrophilic quinone-form of CA to Keap1 protein, activation of the Keap1/Nrf2 pathway requires nuclear translocation of Nrf2 (Talalay, Biofactors 12:5-11, 2000; Padmanabham et al., Mol. Cell 21:689-700, 2006; Itoh et al., Free Radic. Biol. Med. 36:1208-1213, 2004). Thus, we next examined the intracellular distribution of Nrf2 protein in COS7 cells by immunofluorescence.

[1] = tested on: phase 2 genes (GCL-L, GCL-H, HO-1, NQO1); assay: Phase 2 gene induction in PC12h cells (RT-PCR); assay type: cell-based; details: 10 μM CA, 6-24 h
Description: RT-PCR. In order to examine phase 2 gene induction by CA in PC12h cells and brain lysates, RT-PCR of total RNA from cortical cultures was performed using the following primer pairs (Hosoya et al., J. Bioi. Chern. 29:27244-27250, 2005; Kobayashi et al., Mol. Cell. Biol. 26:221-229, 2006): CypA (89 bp), 5′-ACAGGTCCTGGCATCTTGTC-3′ (SEQ ID NO: 18)(sense) and 5′-[…] -3′ (SEQ ID NO: 19)(antisense); H0-1 (284 bp), 5′-CAGTCGCCTCCAGAGTTTCC -3′ (SEQ ID NO: 20)(sense) and 5′- TACAAGGAGGCCATCACCAGC-3′ (SEQ ID NO: 21)(antisense); GCL-M (280 bp), 5′- CTGCTAAACTGTTCATTGTAGG-3′ (SEQ ID NO: 22)(sense) and 5′- CTA TTG GGT TIT ACC TGT G-3′ (SEQ ID NO: 23)(antisense); GCL-C (213 bp), 5′- GTC TIC AGG TGA ACA TIC CAA GC-3′ (SEQ ID NO: 24)(sense) and 5′- TGTTCTTCAGGGGCTCCAGTC-3′ (SEQ 10 NO: 25)(antisense); and NQO1 (212 bp), 5′- GTG TAC AGC ATI GGC CAC AC-3′ (SEQ 10 NO: 26)(sense) and 5′AAATGATGGCCCACAGAAAG-3′ (SEQ ID NO: 27)(antisense).
Phase 2 enzymes represent an important effector activated by electrophilic-induction of the Keap1/Nrf2 pathway. In order to detect induction of the phase 2 enzymes γ-GCL light chain (GCL-L), γ-GCL heavy chain (GCL-H), HO-1, and NQO1, we performed RT-PCR using mRNA of PC12h cells pretreated with 10 μM CA. The cyclophilin A (CYPA) gene was used as an internal positive control.

[2] = Translocation of CA into the brain (HPLC of serum and brain); assay type: in vivo, mouse
Description: Translocation of CA into the brain detected by high-performance liquid chromatography (HPLC). For experiments testing penetration of drug into the CNS, we used adult male C57BL/6 mice (Charles River) weighing 22-26 g. The mice were kept in cages with ad libitum access to food and water under standardized housing conditions (natural light-dark cycle, temperature of 23±3° C., relative humidity of 50±10%). After a seven-day adaptation to laboratory conditions, the animals were randomly assigned to each experimental group (n=10 mice each). Four C57 BL/6 mice, fastened for 18 h, were each orally administered 3 mg of CA in 0.3 ml olive oil. One and three h after the injection, under ether anesthesia, serum and brain were isolated for chemical analysis. CA was extracted from tissue with acetonitrile and ethanol. CA levels were obtained by HPLC (column, μBondasphere C18; temperature, 40 C; HPLC system, Shimadzu [Kyoto, Japan] LC10Avp; detector, UV 230 nm; running solvent 2% acetic acid or acetonitrile, 30% B isocratic at 1 ml/min).
CA accumulation in the brain. For the development of CA as a protective agent against neurodegenerative diseases, penetration into the brain is an essential requirement. To examine this aspect, we administered CA orally to mice (3 mg per 25 g mouse) and measured the level of CA (catechol-form) in serum and brain parenchyma by HPLC.

NF-κB binding site = assay: Enhancer element luciferase reporter p3xNF-κBluc; assay type: cell-based; details: NEPP11 2 μM
Description: Because the E1 and E2 regions also contain other enhancer elements, we tested the effects of NEPP11 (2 μM) on the expression of luciferase activity derived from these elements, including the cAMP-responsive element (CRE; p3xCREluc), AP-1 binding site (p3xAP1luc), NF-κB binding site (p3xNF-κBluc), NFAT-binding site (p3xNFATluc), ETS-binding site (p3xETSluc), and MEF2-binding site (p3xMEF2luc).

HO-1 promoter = HO-1 promoter luciferase reporter in cortical cultures; assay type: cell-based, rat
Description: Next, transcriptional activation of the HO-1 promoter by NEPP was examined by reporter gene assays in primary neurons. Cortical cultures were transfected with reporter cDNAs (1 μg per well), and 0.7 μM NEPP11 was added to the cultures. After a 24 h incubation, cell lysates were subjected to luciferase reporter assays. […] If the Keap1/Nrf2 pathway, indeed, mediates activation of the HO-1 promoter by NEPP11, mutant Nrf2 protein should inhibit this activation. […] Moreover, the selective activation in neurons may explain the relatively small amplitude of total HO-1 activation seen in the mixed neuronal/glial culture system in which glia predominate.

HO-1 protein = assay: HO-1 induction in mouse brain after i.p. injection; assay type: in vivo; details: NEPP11 i.p. 12 h before killing
Description: To test the hypothesis that NEPP protection against brain ischemia is associated with HO-1 expression, we examined HO-1 induction by Western blotting and immunostaining. NEPP11 or vehicle was injected intraperitoneally (i.p.) 12 h before the animals were killed. Brain lysates (10 μg per lane) were extracted and subjected to Western blotting with anti-HO-1 and anti-β-actin antibody. For immunostaining, coronal sections of mouse brain were stained with anti-MAP-2 and anti-HO-1 antibodies.

Row | SMILES | localization of Nrf2 protein (Nrf2) | induction of phase 2 genes [1] | brain permeability ([2]; mouse, in vivo) | time to reach significant levels in the brain ([2]; oral, 3 mg per 25 g mouse) [h] | p3xNF-κBluc expression (NF-κB binding site) | activity of the HO-1 promoter (HO-1 promoter; NEPP11 0.7 μM, 24 h) | HO-1 promoter activation with cotransfection of pNrf2(S40A)-GFP (HO-1 promoter; NEPP11, pNrf-GFP did not affect activation) | level of HO-1 protein in the brain (HO-1 protein)
1 | CC(C)c1cc2c(c(O)c1O)[C@@]1(C(=O)O)CCCC(C)(C)[C@@H]1CC2 [CA, carnosic acid] | translocated into the nucleus | All of the phase 2 genes were induced | brain permeable | ≤ 1 | – | – | – | –
2 | COC(=O)CCCCC/C=C1/C(=O)C=C[C@H]1CCCCCCc1ccc(C)cc1 [NEPP11] | – | – | – | – | minimally activated | significantly increased | almost completely knocked down | increased
